Values quoted from earlier work in patent US6368613B1, “Use of fluorocarbons for diagnosis and treatment of articular disorders” (Alliance Pharmaceutical Corp., priority 1996, dated 2002).
Read-outs that look alike come from different tables or passages of the source. Marks after values point to notes of the source that are not given here.

[1] = octanol/water partition coefficient
[2] = in octanol/pH 7.4 isotonic phosphate buffer at 37° C. (marked a)

Structure (SMILES)	Log Po/w [1]	Po/w [1]	Log Po/w [2]	Po/w [2]	Log Po/w (pH 7.4)
c1ccc2cc3ccccc3cc2c1 [C-anthracene, anthracene]	4.5	3.16 × 10^4			
CCCCCCCCCCCC(=O)N1CCCCCC1 [C-hexamethylenelauramide, hexamethylenelauramide]	7.3	2.00 × 10^7			
CCCCC(CC)COC(=O)c1ccc(N(C)C)cc1 (centres unmarked) [C-padimate-o, padimate-o]	6.6	3.98 × 10^6			
C[C@]12CC[C@H]3[C@@H](CCC4=CC(=O)CC[C@@]43C)[C@@H]1CC[C@@H]2O [C-testosterone, testosterone]	3.3	2.00 × 10^3			
CC/C(=C(/CC)c1ccc(O)cc1)c1ccc(O)cc1 [H -diethylstilbesterol, diethylstilbesterol]	5.1	1.26 × 10^5			
CC(=O)[C@@]1(O)CC[C@H]2[C@@H]3C[C@H](C)C4=CC(=O)C=C[C@]4(C)[C@@]3(F)[C@@H](O)C[C@@]21C [H -fluorornetholone, fluorornetholone]	2.1	1.26 × 10^2			
Clc1cccc(Cl)c1N=C1NCCN1 [H-clonidine, clonidine]	1.4	25.1			
COc1ccc(C(=O)CC(=O)c2ccc(C(C)(C)C)cc2)cc1 [H-parsol 1789, parsol 1789]	6.7	5.0 × 10^6			
CCCCN1CCCCC1C(=O)Nc1c(C)cccc1C (centres unmarked) [bupivacaine]	1.45	28.2			
CN(C)CCCN1c2ccccc2CCc2ccc(Cl)cc21 [clomipramine]			3.58^a	3.80 × 10^3	
CCc1cc2c(s1)N(C)C(=O)CN=C2c1ccccc1Cl [clotiazepam]			3.49^a	3.06 × 10^3	
FC(F)(F)C(Cl)Br (centres unmarked) [halothane]	2.30	2.00 × 10^2			
CCCCCC(=O)OCCOCn1cnc2c(=O)[nH]c(N)nc21 [hexanoyl acyclovir]				8.58	0.93^a
O=C1CN=C(c2ccccc2)c2cc([N+](=O)[O-])ccc2N1 [nitrazepam]	2.21	162			
CC(C)=CCN1CCC2(C)c3cc(O)ccc3CC1C2C (centres unmarked) [pentazocin]			2.18^a	150	
CC(CN1c2ccccc2Sc2ccccc21)N(C)C (centres unmarked) [promethazine]			3.10^a	1.27 × 10^3	
CCCCNc1ccc(C(=O)OCCN(C)C)cc1 [tetracaine]	1.90	79.4			
OC(CCN1CCCCC1)(c1ccccc1)C1CCCCC1 (centres unmarked) [trihexyphenidyl]			3.17^a	1.47 × 10^3	
CCCCC(=O)OCCOCn1cnc2c(=O)[nH]c(N)nc21 [valeryl acyclovir]				2.01	0.30^a
